Reference: patent US20240327463A1, “ANTIBACTERIAL PRODUCTS” (priority 2017, published 2024)
Converted amounts (≈) assume the structure as drawn. Bridge positions count the residues as written; N and C are the ends. Square brackets hold non-standard residues; d marks the D form. Peptide text beside a SMILES is read from it. dNMeF = CN[C@H](Cc1ccccc1)C(=O)O

Experiments:
MRSA ATCC 33591 = details: ATCC 33591
Method: (§1) For MIC testing all peptides were dissolved in DMSO (according to the method of L. L. Ling, et al., Nature 2015, 517, 455-459). Bacteria were grown on Mueller Hinton broth (oxoid). All incubations were at 37° C. Dilutions were carried out using Mueller Hinton. 100 μl of autoclaved Mueller Hinton broth was added to wells 2-12 on a 96-well plate. 200 μl of the peptide was added to well one at a concentration of 512 μg/ml. 100 μl of peptide in well one was taken up and pipetted into well two. The mixture was then mixed via pipetting before 100 μl was taken up and pipetted into well three. This process was repeated up to well 11. […] This was repeated three times. The 96-well plates were then incubated for 24 hours. The MIC was determined to be the lowest concentration at which there was no growth visible.

M. smegmatis ATCC 607 = test: microbe, parasite or virus in culture; details: ATCC 607
Method: as §1

MRSA ATCC 700699 = test: microbe, parasite or virus in culture; details: ATCC 700699
Method: as §1

MRSA DM21455 (eye) = test: microbe, parasite or virus in culture; details: DM21455 (eye)
Method: as §1

MRSA DR 42412 (sputum) = test: microbe, parasite or virus in culture; details: DR 42412 (sputum)
Method: as §1

[1] = system: Staphylococcus aureus ATCC 29213; test: microbe, parasite or virus in culture; details: ATCC 29213
Method: as §1

VRE ATCC 29212 = test: microbe, parasite or virus in culture; details: ATCC 29212
Method: as §1

VRE ATCC 700802 = test: microbe, parasite or virus in culture; details: ATCC 700802
Method: as §1

[2] = system: Bacillus Cereus ATCC 11788; format: cell-based
Method: (§2) Bacteria were grown on Mueller Hinton broth (oxoid). All incubations were at 37° C. Dilutions were carried out using Mueller Hinton. […] This process was repeated up to well 11. […] This was repeated three times. […] Results are tabulated in the Examples.

[3] = system: Bacillus Subtilis ATCC 6633; format: cell-based
Method: as §2

SA4299 = format: cell-based; details: Table 11
Method: as §2

SE12228 = format: cell-based
Method: as §2

[4] = system: Staphylococcus saprophyticus ATCC 15305; format: cell-based; details: ATCC 15305
Method: as §2

[5] = system: Staphylococcus saprophyticus ATCC 49453; format: cell-based; details: ATCC 49453
Method: as §2

[6] = system: Staphylococcus saprophyticus ATCC 49907; format: cell-based; details: ATCC 49907
Method: as §2

[7] = system: Staphylococcus saprophyticus ATCC BAA 750; format: cell-based; details: ATCC BAA 750
Method: as §2

MRSA 1003 = format: cell-based, Staphylococcus aureus
Method: as §2

VRE 1001 = format: cell-based, Enterococcus faecalis
Method: as §2

VRE 1002 = format: cell-based, Enterococcus faecalis
Method: as §2

VRE 1004 = format: cell-based, Enterococcus faecalis
Method: as §2

VRE 1008 = format: cell-based, Enterococcus faecalis
Method: as §2

`CC[C@@H](C)[C@@H](NC(=O)[C@@H](CCC(N)=O)NC(=O)[C@H](CO)NC(=O)[C@@H](NC(=O)[C@@H](Cc1ccccc1)NC)[C@@H](C)CC)C(=O)N[C@H](C(=O)N[C@@H](CO)C(=O)N[C@H]1C(=O)N[C@@H](C)C(=O)N[C@@H]([C@@H](C)CC)C(=O)N[C@@H]([C@@H](C)CC)C(=O)O[C@H]1C)[C@@H](C)CC` [Compound 18, Ile10-teixobactin] was tested, and the “MIC (MRSA*)” value (MRSA ATCC 33591) was 0.25 µg/mL (≈ 0.208 µM), the MIC (M. smegmatis ATCC 607) was 0.5 µg/mL (≈ 0.416 µM) and the MBC (MRSA ATCC 700699) was 1 µg/mL (≈ 0.832 µM). For the same molecule, the MIC (MRSA ATCC 700699) was 0.25 µg/mL (≈ 0.208 µM), the MBC (MRSA DM21455 (eye)) was 0.125 µg/mL (≈ 0.104 µM) and the MIC (MRSA DM21455 (eye)) was ≤0.0625 µg/mL. The MBC (MRSA DR 42412 (sputum)) was ≤0.0625 µg/mL, the MIC (MRSA DR 42412 (sputum)) was ≤0.0625 µg/mL and the MBC [1] was 0.125 µg/mL (≈ 0.104 µM). For the same molecule, the MIC [1] was ≤0.0625 µg/mL, the MIC (VRE ATCC 29212) was ≤0.0625 µg/mL and the MIC (VRE ATCC 700802) was ≤0.0625 µg/mL.
In the case of `CC[C@@H](C)[C@@H](NC(=O)[C@@H](CCC(N)=O)NC(=O)[C@H](CO)NC(=O)[C@@H](NC(=O)[C@@H](Cc1ccccc1)NC)[C@@H](C)CC)C(=O)N[C@H](C(=O)N[C@@H](CO)C(=O)N[C@H]1C(=O)N[C@@H](C)C(=O)N[C@@H](C(C)C)C(=O)N[C@@H]([C@@H](C)CC)C(=O)O[C@H]1C)[C@@H](C)CC` [Compound 17], the “MIC (MRSA*)” value (MRSA ATCC 33591) is reported as 0.5 µg/mL (≈ 0.421 µM), the MIC (M. smegmatis ATCC 607) is reported as 1 µg/mL (≈ 0.842 µM) and the MBC (MRSA ATCC 700699) is reported as 4 µg/mL (≈ 3.37 µM). The MIC (MRSA ATCC 700699) was 1 µg/mL (≈ 0.842 µM), the MBC (MRSA DM21455 (eye)) was 2 µg/mL (≈ 1.68 µM) and the MIC (MRSA DM21455 (eye)) was 0.25 µg/mL (≈ 0.211 µM). The MBC (MRSA DR 42412 (sputum)) was 4 µg/mL (≈ 3.37 µM), the MIC (MRSA DR 42412 (sputum)) was 0.5 µg/mL (≈ 0.421 µM) and the MBC [1] was 1 µg/mL (≈ 0.842 µM). It also gave an MIC [1] of 0.25 µg/mL (≈ 0.211 µM), an MIC (VRE ATCC 29212) of 0.5 µg/mL (≈ 0.421 µM) and an MIC (VRE ATCC 700802) of 0.5 µg/mL (≈ 0.421 µM).
`CC[C@@H](C)[C@@H](NC(=O)[C@@H](CCC(N)=O)NC(=O)[C@H](CO)NC(=O)[C@@H](NC(=O)[C@@H](Cc1ccccc1)NC)[C@@H](C)CC)C(=O)N[C@H](C(=O)N[C@@H](CO)C(=O)N[C@H]1C(=O)N[C@@H](C)C(=O)N[C@@H](CC(C)C)C(=O)N[C@@H]([C@@H](C)CC)C(=O)O[C@H]1C)[C@@H](C)CC` [Compound 19, Leu10-teixobactin] was tested, and the “MIC (MRSA*)” value (MRSA ATCC 33591) was 0.25 µg/mL (≈ 0.208 µM), the MIC (M. smegmatis ATCC 607) was 1 µg/mL (≈ 0.832 µM) and the MBC (MRSA ATCC 700699) was 2 µg/mL (≈ 1.66 µM). For the same molecule, the MIC (MRSA ATCC 700699) was 0.25 µg/mL (≈ 0.208 µM), the MBC (MRSA DM21455 (eye)) was ≤0.0625 µg/mL and the MIC (MRSA DM21455 (eye)) was ≤0.0625 µg/mL. For the same molecule, the MBC (MRSA DR 42412 (sputum)) was ≤0.0625 µg/mL, the MIC (MRSA DR 42412 (sputum)) was ≤0.0625 µg/mL and the MBC [1] was 0.125 µg/mL (≈ 0.104 µM). The MIC [1] was ≤0.0625 µg/mL, the MIC (VRE ATCC 29212) was 0.25 µg/mL (≈ 0.208 µM) and the MIC (VRE ATCC 700802) was 0.25 µg/mL (≈ 0.208 µM).
`CC[C@@H](C)[C@@H](NC(=O)[C@@H](CCC(N)=O)NC(=O)[C@H](CO)NC(=O)[C@@H](NC(=O)[C@@H](Cc1ccccc1)NC)[C@@H](C)CC)C(=O)N[C@H](C(=O)N[C@@H](CO)C(=O)N[C@H]1C(=O)N[C@@H](CCCNC(=N)N)C(=O)N[C@@H](CC(C)C)C(=O)N[C@@H]([C@@H](C)CC)C(=O)O[C@H]1C)[C@@H](C)CC` [Compound 27, Arg9-Leu10-teixobactin] (H-[dNMeF]IS[dQ][dI]IS[dT]RLI; ester 8-C) was tested, and the “MIC (MRSA)” value (MRSA ATCC 33591) was 0.125 µg/mL (≈ 0.0972 µM), the MIC [2] was 0.25 µg/mL (≈ 0.194 µM) and the MIC [3] was <0.0625 µg/mL. The MIC (SA4299) was 0.25 µg/mL (≈ 0.194 µM), the MIC (SE12228) was <0.0625 µg/mL and the MIC [4] was <0.0625 µg/mL. For the same molecule, the MIC [5] was <0.0625 µg/mL, the MIC [6] was <0.0625 µg/mL and the MIC [7] was <0.0625 µg/mL. The MIC (MRSA ATCC 700699) was 0.5 µg/mL (≈ 0.389 µM), the MIC (MRSA DM21455 (eye)) was 0.25 µg/mL (≈ 0.194 µM) and the MIC (MRSA DR 42412 (sputum)) was <0.0625 µg/mL. It also gave an MIC [1] of 0.5 µg/mL (≈ 0.389 µM), an MIC (VRE ATCC 29212) of 1 µg/mL (≈ 0.777 µM) and an MIC (VRE ATCC 700802) of 0.5 µg/mL (≈ 0.389 µM). The MIC (MRSA 1003) was 0.25 µg/mL (≈ 0.194 µM), the MIC (VRE 1001) was 0.5 µg/mL (≈ 0.389 µM) and the MIC (VRE 1002) was 1 µg/mL (≈ 0.777 µM). For the same molecule, the MIC (VRE 1004) was 0.25 µg/mL (≈ 0.194 µM) and the MIC (VRE 1008) was 0.25 µg/mL (≈ 0.194 µM).
